Experiment [1] relates to BALB/c mice after 7 Gy TBI. The experiment in a line: Peripheral blood counts after TBI (CBC, Hemavet). In kind it is in vivo, mouse. The note with it: median; for WBC: treatment started 24 h after irradiation. The procedure:
Male BALB/c mice (Stock #028, Charles River, Wilmington, Mass.) were acclimated prior to irradiation at age 12 weeks. Studies were conducted in accordance with Dana-Farber Cancer Institute's ACUC-approved policies and protocols. Mice were placed into a Rad Disk™ rodent microisolation irradiation cage (Braintree Scientific, Braintree, Mass.) and administered a single 7 Gy dose by a Gammacell® 40Exactor (Best Theratronics, Ottawa, Ontario) cesium source irradiator. […] Moribund mice were euthanized via CO, asphyxiation. At scheduled time points, mice were sacrificed humanely via isoflurane anesthetic overdose (IsoFlo®-Abbott Labs, Abbott Park, Ill.).
CBCs were performed on a Hemavet 950 FS hematology analyzer (Drew Scientific, Waterbury, Conn.) with EDTA-anticoagulated (Becton-Dickinson, Franklin Lakes, N.J.) cardiac blood. Plasma was obtained by mixing blood with pyrogen-free heparin (APP Pharmaceutical, Schaumburg, Ill.), in pyrogen-free Eppendorf tubes (USA Scientific) and centrifugation at 14,000 rpm for 10 minutes. Single use aliquots were stored at −80° C. In some studies, femurs and tibiae from one leg/animal were dissected, fixed for 24 hours in 10% neutral buffered formalin (Fisher Scientific, Pittsburgh, Pa.), and processed, including coronal sectioning and hematoxylin and eosin (H&E) staining (Specialized Histopathology Services-Longwood, Boston, Mass.). […] Red blood cells were lysed with hypotonic lysing buffer (Sigma).

The subject of experiment [2] is BALB/c mice after 7 Gy TBI. Put plainly: In vivo radiation mitigation: survival after 7 Gy TBI. Details: species or system mouse. The note with it: 7 Gy TBI (LD95/30), treatment initiated 24 hours after irradiation; Mantel-Cox log-rank. The procedure: (§1) Male BALB/c mice (Stock #028, Charles River, Wilmington, Mass.) were acclimated prior to irradiation at age 12 weeks. Studies were conducted in accordance with Dana-Farber Cancer Institute's ACUC-approved policies and protocols. Mice were placed into a Rad Disk™ rodent microisolation irradiation cage (Braintree Scientific, Braintree, Mass.) and administered a single 7 Gy dose by a Gammacell® 40Exactor (Best Theratronics, Ottawa, Ontario) cesium source irradiator. […]
For the human HSCT study, samples with undetectable analytes were assigned a value at half the lower limit of detection. For ANC, PLT, BPI, TLR4 and IL-6, data were analyzed after logarithmic transformation, as this yielded distributions that were more approximately normal. […] Comparisons between subjects with or without fever were evaluated using the Mann-Whitney test. When assessing correlations between different parameters, within-subject correlations were calculated using the Spearman correlation coefficient and data from multiple time-points. The calculated coefficients were averaged over the different subjects and significance tested with the signed rank test. […] Two tailed t tests (Mann-Whitney) are performed throughout except for citrulline data in which the data were analyzed by 1-sample t test as compared to theoretical mean of 100% and for hematologic analyses (Table 1) in which unpaired t tests were performed. […]

The subject of experiment [3] is BM of BALB/c mice after 7 Gy TBI. The experiment in a line: Femoral BM cellularity by histopathology. In kind it is in vivo, mouse. Particulars: D19 after 7 Gy. The procedure:
as §1
A Board-certified hematopathologist (JK) assessed femoral BM cellularity on decalcified, formalin fixed, H&E stained paraffin-fixed sections using an Olympus BX51 microscope and an Olympus DP71 camera with DP Capture software. For each animal, 2 slides with 2 fields/slide were scored for the percent of BM space occupied by hematopoietic cells. […]

Marks after values point to notes of the source that are not given here.

As for `CCN1CCN(c2cc3c(cc2F)c(=O)c(C(=O)O)cn3C2CC2)CC1` [ENR, enrofloxacin], in experiment [1] (D15 after 7 Gy TBI), the WBC is 0.24 ▴ K/μL, the Hb is 8.80 ▴ ▪ g/dL, the Monocytes is given as 0 ▴ ● K/μL and the Neutrophils is 0 ▴ ● K/μL. Moreover, the PLT in experiment [1] (D15 after 7 Gy TBI) was 196 ▴ K/μL. In experiment [1] (D19 after 7 Gy TBI), the WBC is given as 0.21 ▴ K/μL, the Hb was 8.35 ▴ ▪ g/dL, the Monocytes is recorded as 0 ▴ ● ▪ K/μL and the Neutrophils is 0 ▴ ● ▪ K/μL. In experiment [1] (D19 after 7 Gy TBI), the PLT was 250.5 ▴ K/μL. Further, in experiment [1] (D30 after 7 Gy TBI), the WBC is reported as 1.84 ▴ ● K/μL, the Hb is recorded as 13.1 ▴ g/dL, the Monocytes was 0.14 ● K/μL and the Neutrophils is recorded as 0.55 ● K/μL. Moreover, the PLT in experiment [1] (D30 after 7 Gy TBI) is 713.5 ▴ K/μL. In addition, the D30 survival entry in experiment [2] was “some survival benefit”. Besides, the BM cellularity in experiment [3] is given as less than 5%.

These data come from patent US9884089B2, “BPI and its congeners as radiation mitigators and radiation protectors” (Dana-Farber Cancer Institute, Inc., priority 2011, dated 2018).
